ChEMBL document CHEMBL3132769, “Fragment growing to retain or alter the selectivity of anchored kinase hinge-binding fragments” (Medchemcomm, 2014)

Legend:
[1] = molecular target: Ribosomal protein S6 kinase alpha-5 (Homo sapiens) (UniProt O75582); assay: Inhibition of human full length MSK1 expressed in baculovirus assessed as substrate phosphorylation using fluorescence-labelled peptides as substrate at 8 uM after 90 mins by microfluidic peptide phosphorylation assay
[2] = molecular target: Protein kinase C beta type (Homo sapiens) (UniProt P05771); assay: Inhibition of human full length PKC beta2 expressed in baculovirus assessed as substrate phosphorylation using fluorescence-labelled peptides as substrate at 8 uM after 90 mins by microfluidic peptide phosphorylation assay
[3] = molecular target: Protein kinase C alpha type (Homo sapiens) (UniProt P17252); assay: Inhibition of human truncated PKC alpha expressed in baculovirus assessed as substrate phosphorylation using fluorescence-labelled peptides as substrate at 0.06 uM after 90 mins by microfluidic peptide phosphorylation assay
[4] = molecular target: T1, Aurora kinase A (Homo sapiens) (UniProt O14965); assay: Inhibition of human full length AurA expressed in baculovirus assessed as substrate phosphorylation using fluorescence-labelled peptides as substrate at 0.2 uM after 90 mins by microfluidic peptide phosphorylation assay
T1 sequence (whole entry): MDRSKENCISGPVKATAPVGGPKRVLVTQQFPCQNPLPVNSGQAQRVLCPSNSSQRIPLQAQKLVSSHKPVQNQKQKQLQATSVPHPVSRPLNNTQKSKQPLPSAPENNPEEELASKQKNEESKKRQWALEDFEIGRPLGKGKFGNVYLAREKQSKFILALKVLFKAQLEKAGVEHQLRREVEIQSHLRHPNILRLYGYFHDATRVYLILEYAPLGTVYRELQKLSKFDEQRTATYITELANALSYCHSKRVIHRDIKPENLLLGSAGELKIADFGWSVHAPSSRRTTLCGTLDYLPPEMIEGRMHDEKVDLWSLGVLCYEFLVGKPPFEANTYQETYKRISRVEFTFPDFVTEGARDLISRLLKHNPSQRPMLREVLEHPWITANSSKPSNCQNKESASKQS

Homo sapiens = organism: Homo sapiens; assay: Inhibition of human P70S6K catalytic domain expressed in baculovirus assessed as substrate phosphorylation using fluorescence-labelled peptides as substrate at 0.2 uM after 90 mins by microfluidic peptide phosphorylation assay
[5] = molecular target: Epidermal growth factor receptor (Homo sapiens) (UniProt P00533); assay: Inhibition of human EGFR catalytic domain expressed in baculovirus assessed as substrate phosphorylation using fluorescence-labelled peptides as substrate at 9 uM after 90 mins by microfluidic peptide phosphorylation assay
[6] = system: Tyrosine-protein kinase ABL1 (Homo sapiens), P00519 [H396P]; assay: Inhibition of human truncated ABL H396P mutant expressed in baculovirus assessed as substrate phosphorylation using fluorescence-labelled peptides as substrate at 0.1 uM after 90 mins by microfluidic peptide phosphorylation assay
[7] = molecular target: T2, MAP kinase-activated protein kinase 5 (Homo sapiens) (UniProt Q8IW41); assay: Inhibition of human full length PRAK expressed in baculovirus assessed as substrate phosphorylation using fluorescence-labelled peptides as substrate at 95 uM after 90 mins by microfluidic peptide phosphorylation assay
T2 sequence (whole entry): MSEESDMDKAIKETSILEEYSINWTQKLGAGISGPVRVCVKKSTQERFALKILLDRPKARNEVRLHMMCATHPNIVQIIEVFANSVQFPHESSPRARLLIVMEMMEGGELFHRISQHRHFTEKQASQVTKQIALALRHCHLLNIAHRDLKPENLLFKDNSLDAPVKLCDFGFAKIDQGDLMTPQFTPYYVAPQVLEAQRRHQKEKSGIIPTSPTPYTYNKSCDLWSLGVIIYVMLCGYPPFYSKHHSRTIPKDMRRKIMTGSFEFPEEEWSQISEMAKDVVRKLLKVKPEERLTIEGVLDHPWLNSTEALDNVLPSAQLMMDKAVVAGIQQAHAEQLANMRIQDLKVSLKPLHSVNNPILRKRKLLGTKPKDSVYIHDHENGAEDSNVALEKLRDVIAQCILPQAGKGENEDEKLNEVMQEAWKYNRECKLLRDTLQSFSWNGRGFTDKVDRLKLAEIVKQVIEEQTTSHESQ

[8] = molecular target: T3, Serine/threonine-protein kinase 3 (Homo sapiens) (UniProt Q13188); assay: Inhibition of human full length MST2 expressed in baculovirus assessed as substrate phosphorylation using fluorescence-labelled peptides as substrate at 1000 uM after 90 mins by microfluidic peptide phosphorylation assay
T3 sequence (whole entry): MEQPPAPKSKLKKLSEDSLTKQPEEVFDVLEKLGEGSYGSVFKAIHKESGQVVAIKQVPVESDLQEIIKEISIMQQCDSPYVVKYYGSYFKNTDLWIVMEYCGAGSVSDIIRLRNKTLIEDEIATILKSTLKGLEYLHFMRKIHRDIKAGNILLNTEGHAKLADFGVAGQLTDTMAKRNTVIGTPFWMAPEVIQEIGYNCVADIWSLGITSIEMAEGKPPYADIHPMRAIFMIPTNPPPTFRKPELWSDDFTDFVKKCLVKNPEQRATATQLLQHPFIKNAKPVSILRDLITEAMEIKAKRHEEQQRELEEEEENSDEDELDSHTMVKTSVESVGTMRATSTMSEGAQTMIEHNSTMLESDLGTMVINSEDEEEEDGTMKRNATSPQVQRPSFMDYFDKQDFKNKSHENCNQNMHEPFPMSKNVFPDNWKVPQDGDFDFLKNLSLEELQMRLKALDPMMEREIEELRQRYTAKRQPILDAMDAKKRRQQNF

[9] = molecular target: Proto-oncogene tyrosine-protein kinase Src (Homo sapiens) (UniProt P12931); assay: Inhibition of human full length SRC expressed in baculovirus assessed as substrate phosphorylation using fluorescence-labelled peptides as substrate at 1000 uM after 90 mins by microfluidic peptide phosphorylation assay
[10] = molecular target: RAC-alpha serine/threonine-protein kinase (Homo sapiens) (UniProt P31749); assay: Inhibition of human AKT1 catalytic domain expressed in baculovirus assessed as substrate phosphorylation using fluorescence-labelled peptides as substrate at 70 uM after 90 mins by microfluidic peptide phosphorylation assay
[11] = molecular target: Tyrosine-protein kinase Lyn (Homo sapiens) (UniProt P07948); assay: Inhibition of human full length LYN expressed in baculovirus assessed as substrate phosphorylation using fluorescence-labelled peptides as substrate at 70 uM after 90 mins by microfluidic peptide phosphorylation assay
[12] = molecular target: T3, Serine/threonine-protein kinase 3 (Homo sapiens); assay: Inhibition of human full length MST2 expressed in baculovirus assessed as substrate phosphorylation using fluorescence-labelled peptides as substrate at 420 uM after 90 mins by microfluidic peptide phosphorylation assay
[13] = molecular target: Mitogen-activated protein kinase 3 (Homo sapiens) (UniProt P27361); assay: Inhibition of human full length ERK1 expressed in Escherichia coli cell assessed as substrate phosphorylation using fluorescence-labelled peptides as substrate at 420 uM after 90 mins by microfluidic peptide phosphorylation assay
[14] = molecular target: Protein kinase C gamma type (Homo sapiens) (UniProt P05129); assay: Inhibition of human truncated PKC gamma expressed in baculovirus assessed as substrate phosphorylation using fluorescence-labelled peptides as substrate at 420 uM after 90 mins by microfluidic peptide phosphorylation assay
[15] = molecular target: Hepatocyte growth factor receptor (Homo sapiens) (UniProt P08581); assay: Inhibition of human MET cytoplasmic domain expressed in baculovirus assessed as substrate phosphorylation using fluorescence-labelled peptides as substrate at 420 uM after 90 mins by microfluidic peptide phosphorylation assay
Chain of Hepatocyte growth factor receptor (Homo sapiens) (P08581 whole entry, the tested form may be a part): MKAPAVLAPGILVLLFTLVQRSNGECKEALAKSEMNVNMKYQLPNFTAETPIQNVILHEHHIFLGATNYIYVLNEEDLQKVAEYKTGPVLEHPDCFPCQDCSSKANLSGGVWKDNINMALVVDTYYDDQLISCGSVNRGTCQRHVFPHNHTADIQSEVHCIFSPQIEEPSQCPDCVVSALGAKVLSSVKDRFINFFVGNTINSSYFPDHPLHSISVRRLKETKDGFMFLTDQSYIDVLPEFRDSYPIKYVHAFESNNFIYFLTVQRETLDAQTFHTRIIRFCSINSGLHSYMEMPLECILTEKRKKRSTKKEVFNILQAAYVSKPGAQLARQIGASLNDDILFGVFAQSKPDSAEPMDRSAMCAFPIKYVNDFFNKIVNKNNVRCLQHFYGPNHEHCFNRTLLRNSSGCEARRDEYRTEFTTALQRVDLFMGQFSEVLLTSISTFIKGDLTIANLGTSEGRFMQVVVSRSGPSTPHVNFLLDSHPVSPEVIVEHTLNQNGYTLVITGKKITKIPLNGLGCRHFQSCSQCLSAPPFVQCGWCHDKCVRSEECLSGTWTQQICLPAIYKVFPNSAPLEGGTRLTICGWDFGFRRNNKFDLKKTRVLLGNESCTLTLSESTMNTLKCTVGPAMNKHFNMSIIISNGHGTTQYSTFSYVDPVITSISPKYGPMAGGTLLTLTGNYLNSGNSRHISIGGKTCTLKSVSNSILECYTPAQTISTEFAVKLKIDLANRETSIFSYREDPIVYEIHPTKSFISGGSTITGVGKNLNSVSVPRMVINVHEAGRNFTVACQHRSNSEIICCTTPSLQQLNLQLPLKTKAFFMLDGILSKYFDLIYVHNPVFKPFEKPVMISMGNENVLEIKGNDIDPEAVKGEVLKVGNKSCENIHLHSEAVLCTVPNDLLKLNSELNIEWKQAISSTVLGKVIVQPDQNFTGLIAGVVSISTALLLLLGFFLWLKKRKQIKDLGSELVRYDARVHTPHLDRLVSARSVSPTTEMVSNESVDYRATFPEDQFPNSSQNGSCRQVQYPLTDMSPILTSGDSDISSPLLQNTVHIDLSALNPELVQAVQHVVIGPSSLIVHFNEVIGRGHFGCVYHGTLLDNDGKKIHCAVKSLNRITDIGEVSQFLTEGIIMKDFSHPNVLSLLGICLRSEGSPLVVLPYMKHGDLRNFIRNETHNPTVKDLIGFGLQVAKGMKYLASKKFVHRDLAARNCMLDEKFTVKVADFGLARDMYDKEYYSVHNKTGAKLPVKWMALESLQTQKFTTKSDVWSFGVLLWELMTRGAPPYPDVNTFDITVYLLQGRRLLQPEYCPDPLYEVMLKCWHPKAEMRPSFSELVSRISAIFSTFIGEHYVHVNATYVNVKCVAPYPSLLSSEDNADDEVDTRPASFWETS

Chain of Epidermal growth factor receptor (Homo sapiens) (P00533 whole entry, the tested form may be a part): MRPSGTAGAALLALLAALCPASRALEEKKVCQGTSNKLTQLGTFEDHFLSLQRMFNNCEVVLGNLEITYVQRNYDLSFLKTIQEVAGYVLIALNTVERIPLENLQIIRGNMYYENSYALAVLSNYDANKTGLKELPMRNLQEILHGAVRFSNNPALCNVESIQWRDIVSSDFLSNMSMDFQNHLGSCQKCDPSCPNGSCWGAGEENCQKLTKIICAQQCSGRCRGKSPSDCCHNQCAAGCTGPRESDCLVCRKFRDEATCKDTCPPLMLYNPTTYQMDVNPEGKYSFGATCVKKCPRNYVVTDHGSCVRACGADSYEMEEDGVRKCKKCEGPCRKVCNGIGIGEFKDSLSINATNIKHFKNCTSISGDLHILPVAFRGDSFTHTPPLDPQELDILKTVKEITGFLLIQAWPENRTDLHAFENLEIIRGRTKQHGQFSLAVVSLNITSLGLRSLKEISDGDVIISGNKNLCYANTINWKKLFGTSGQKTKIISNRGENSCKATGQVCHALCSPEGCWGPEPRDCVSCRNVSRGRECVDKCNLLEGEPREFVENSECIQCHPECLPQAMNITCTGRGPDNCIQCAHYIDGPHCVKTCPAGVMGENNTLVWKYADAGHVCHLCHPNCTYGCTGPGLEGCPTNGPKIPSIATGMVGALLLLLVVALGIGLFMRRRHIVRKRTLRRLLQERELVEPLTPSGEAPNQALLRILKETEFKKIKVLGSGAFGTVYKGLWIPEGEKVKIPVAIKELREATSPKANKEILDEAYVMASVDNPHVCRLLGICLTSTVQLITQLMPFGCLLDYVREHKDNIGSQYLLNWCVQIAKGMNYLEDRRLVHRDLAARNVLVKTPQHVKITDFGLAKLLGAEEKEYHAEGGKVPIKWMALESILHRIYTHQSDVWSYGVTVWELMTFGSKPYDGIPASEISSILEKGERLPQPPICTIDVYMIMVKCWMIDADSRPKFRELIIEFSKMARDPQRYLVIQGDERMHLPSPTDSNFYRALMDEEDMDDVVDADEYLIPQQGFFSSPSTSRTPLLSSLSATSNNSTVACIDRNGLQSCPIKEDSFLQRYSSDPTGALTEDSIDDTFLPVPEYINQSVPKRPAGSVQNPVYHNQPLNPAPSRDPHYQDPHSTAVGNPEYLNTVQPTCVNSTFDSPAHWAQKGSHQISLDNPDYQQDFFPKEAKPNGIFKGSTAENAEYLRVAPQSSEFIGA
Chain of RAC-alpha serine/threonine-protein kinase (Homo sapiens) (P31749 whole entry, the tested form may be a part): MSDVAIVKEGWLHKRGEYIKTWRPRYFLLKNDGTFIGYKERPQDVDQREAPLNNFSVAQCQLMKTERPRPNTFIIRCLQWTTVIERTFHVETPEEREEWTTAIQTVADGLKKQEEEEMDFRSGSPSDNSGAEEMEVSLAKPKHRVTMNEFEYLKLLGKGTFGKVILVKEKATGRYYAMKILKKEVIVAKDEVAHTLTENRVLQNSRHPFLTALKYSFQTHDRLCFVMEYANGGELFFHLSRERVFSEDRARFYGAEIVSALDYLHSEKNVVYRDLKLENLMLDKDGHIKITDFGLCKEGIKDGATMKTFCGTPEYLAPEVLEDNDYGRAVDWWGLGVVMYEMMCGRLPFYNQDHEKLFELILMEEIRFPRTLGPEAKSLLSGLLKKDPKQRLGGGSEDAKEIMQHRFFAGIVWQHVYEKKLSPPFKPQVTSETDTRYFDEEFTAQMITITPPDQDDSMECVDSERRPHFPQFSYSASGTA
Chain of Ribosomal protein S6 kinase alpha-5 (Homo sapiens) (O75582 whole entry, looked up): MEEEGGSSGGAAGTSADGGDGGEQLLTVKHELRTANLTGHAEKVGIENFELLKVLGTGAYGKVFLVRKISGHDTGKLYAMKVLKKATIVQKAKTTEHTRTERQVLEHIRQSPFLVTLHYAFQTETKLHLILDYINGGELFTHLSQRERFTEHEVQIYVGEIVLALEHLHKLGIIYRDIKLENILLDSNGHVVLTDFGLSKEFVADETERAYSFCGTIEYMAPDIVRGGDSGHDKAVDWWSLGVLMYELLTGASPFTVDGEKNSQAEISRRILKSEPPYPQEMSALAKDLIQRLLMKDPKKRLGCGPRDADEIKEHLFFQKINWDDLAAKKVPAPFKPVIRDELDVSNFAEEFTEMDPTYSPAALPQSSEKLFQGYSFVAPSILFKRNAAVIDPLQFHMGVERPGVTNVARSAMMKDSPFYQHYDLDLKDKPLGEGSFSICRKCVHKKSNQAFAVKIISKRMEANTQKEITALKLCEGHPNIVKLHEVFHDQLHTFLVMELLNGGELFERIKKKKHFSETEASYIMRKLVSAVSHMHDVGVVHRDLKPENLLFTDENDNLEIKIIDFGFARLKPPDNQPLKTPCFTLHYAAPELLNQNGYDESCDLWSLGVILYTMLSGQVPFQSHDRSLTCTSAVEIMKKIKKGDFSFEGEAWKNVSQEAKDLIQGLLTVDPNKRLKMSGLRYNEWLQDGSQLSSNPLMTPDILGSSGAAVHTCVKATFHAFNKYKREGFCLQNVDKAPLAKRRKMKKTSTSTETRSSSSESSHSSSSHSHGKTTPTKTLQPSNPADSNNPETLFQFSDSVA
Chain of Tyrosine-protein kinase Lyn (Homo sapiens) (P07948 2-512 limits assumed): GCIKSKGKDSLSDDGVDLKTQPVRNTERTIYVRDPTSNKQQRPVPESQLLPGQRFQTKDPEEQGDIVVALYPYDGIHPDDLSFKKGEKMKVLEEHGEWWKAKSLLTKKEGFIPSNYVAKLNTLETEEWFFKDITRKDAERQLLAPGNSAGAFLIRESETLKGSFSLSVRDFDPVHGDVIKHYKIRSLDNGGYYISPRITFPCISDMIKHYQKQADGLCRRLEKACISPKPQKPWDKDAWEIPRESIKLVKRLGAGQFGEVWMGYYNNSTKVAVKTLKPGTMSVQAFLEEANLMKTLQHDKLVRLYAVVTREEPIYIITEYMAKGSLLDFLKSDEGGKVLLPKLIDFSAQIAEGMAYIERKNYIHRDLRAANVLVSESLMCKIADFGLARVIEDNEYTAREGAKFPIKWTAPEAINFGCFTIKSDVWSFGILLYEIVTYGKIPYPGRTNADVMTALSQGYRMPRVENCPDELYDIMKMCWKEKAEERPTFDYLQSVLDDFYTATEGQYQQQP

NCC1CCN(c2ncnc3[nH]ccc23)CC1
inhibition [1]: 68%
inhibition [2]: 88.5%

NC1(Cc2ccc(Cl)cc2)CCN(c2ncnc3[nH]ccc23)CC1
inhibition [3]: 30%

Clc1ccc(C2(c3ccc(-c4ncnc5[nH]cnc45)cc3)CCNCC2)cc1
inhibition [4]: 49%
inhibition (Homo sapiens): 87.5%

NCC1CN(c2ncnc3[nH]c4cnccc4c23)CCO1 (stereo unspecified)
inhibition [5]: 12%

C[C@H](CN(C)C)Oc1nc(Nc2cc3cccc(Cl)c3cn2)cnc1C#N
inhibition [6]: 1.5%

NCCc1ccc(-c2ncnc3[nH]cnc23)cc1
inhibition [7]: 35%

c1cnc2[nH]ccc2c1
inhibition [8]: 63%
inhibition [9]: 28.5%

CNCc1ccc(-c2ncnc3[nH]cnc23)cc1
inhibition [10]: 64.5%
inhibition [11]: 35%

c1nc(N2CCOCC2)c2nc[nH]c2n1
inhibition [12]: 99%
inhibition [13]: 78.5%
inhibition [14]: 66%
inhibition [15]: 23%
